Experiments:
[1] = system: stereotyped behaviour in normal rats; test: Induction of stereotyped behaviour in normal rats (stereotypy score 0-7); assay type: in vivo, Male Wistar rats; settings: for Stereotypy (Peak) / Stereotypy (Total): normal rats, dose not given; for Stereotypy (Peak) / Stereotypy (Total) / Effect on stereotypy: s.c.; for Stereotypy (Peak): stereotypy score at time of peak effect; for Stereotypy (Total): total stereotypy score; for Effect on stereotypy: whole dose range tested (amphetamine 0.1-5, fusaric acid 20-80, amphetaminils 0.1-10 mg/kg), 300 min
Protocol: (§1) Male Wistar rats (n=4 per group) were randomly allocated to each drug treatment group. Drugs were administered such that, with the exception of fusaric acid, each rat in each group received all doses of the drug or vehicle in a semi random manner according to the modified Latin Square in Table 1. Compounds were administered at the doses: 0.1, 1 and 10 mg/kg s.c. in 100% DMSO (vehicle). Amphetamine was administered at 0.1, 1 and 5 mg/kg s.c. in saline (vehicle). Fusaric acid was administered at 20, 40 and 80 mg/kg s.c. in saline (vehicle). Rats received each dose of fusaric acid (20, 40 and 80 mg/kg), doses given in order, starting with vehicle. A one-week interval was provided between doses.
(§2) At the start of the experiment, rats were placed in standard perspex behaviour boxes with a visible grid on the floor to allow determination of locomotor activity. The animals were allowed to acclimatise to their environment for 1 hour prior to drug/saline administration. Following drug administration animals were returned to the behaviour cages and locomotor activity was assessed for a further 5 hours or until baseline (zero activity for 30 minutes) was achieved, whichever was sooner. Locomotor activity was assessed by videoing the rats throughout the experiment, and counting the number of times a rat crossed a grid line over a period of 5 minutes every 10 minutes. Throughout the experiment animals were scored for stereotyped behaviours for 15 seconds every 10 minutes by a trained observer using the scoring methods described in Table 2.
The mean and standard error for stereotypy activity for 15 seconds every 10 minutes for each rat at each time point was determined. […] Cumulative activity during the 300 min was also calculated, and the effect of dose of drug was analyzed by Kruskall Wallis one-way ANOVA (GraphPad Prizm). Data was also analysed for significant fit to a sigmoidal-shaped log dose-response curve using non-linear regression analysis (GraphPad Prizm)

[2] = system: locomotor activity in normal rats; test: Locomotor activity in normal rats (grid line crossings); assay type: in vivo, Male Wistar rats; settings: for Locomotor (Peak) / Locomotor (Total): normal rats, dose not given; for Locomotor (Peak) / Locomotor (Total) / Effect on locomotor activity: s.c.; for Locomotor (Peak): at time of peak effect; for Locomotor (Total): total (cumulative) effect; for Ratio (Peak): ratio locomotor/stereotypy at time of peak effect; for Ratio (Total): ratio locomotor/stereotypy, total effect; for Effect on locomotor activity: whole dose range tested (amphetamine 0.1-5, fusaric acid 20-80, amphetaminils 0.1-10 mg/kg), 300 min
Protocol: as §1, §2
Locomotor activity Data The mean and standard error for locomotor activity during 10 minutes for each rat at each time point was determined. […] Cumulative activity during the 300 min was also calculated, and the effect of dose of drug was analyzed by 1 way repeated measures ANOVA followed by Dunnett's test (GraphPad Prizm). Data was also analysed for significant fit to a sigmoidal-shaped log dose-response curve using non-linear regression analysis (GraphPad Prizm).

With `CC(N)Cc1ccccc1` (stereo not shown) [Amphetamine] the “Overall stereotypy during the 300 min” value ([1]; 5 mg/kg s.c.) was “tended to increase overall stereotypy”, the “Stereotypy (Peak)” value [1] was 5 and the “Stereotypy (Total)” value [1] was 81. For the same compound, the Effect on stereotypy [1] was “log dose-related increase stereotypy”, the “Time of maximum effect on locomotor activity after administration” value ([2]; 5 mg/kg s.c.) was 30 min and the “Cumulative locomotor activity during the 300 min” value ([2]; 5 mg/kg s.c., compared to vehicle) was “significantly increased”. The “Locomotor (Peak)” value [2] was 125, the “Locomotor (Total)” value [2] was 850 and the “Ratio (Peak)” value [2] was 25. The “Ratio (Total)” value [2] was 10.5 and the “Effect on locomotor activity” value [2] was “dose-related increase in locomotor activity”.
For `CC(Cc1ccccc1)NC(C#N)c1ccccc1` (racemic) [Racemic amphetaminil, alpha-[(1-methyl-2-phenylethyl)amino]benzeneacetonitrile], the Duration of stereotypy ([1]; 10 mg/kg s.c.) was “sustained for the duration of the experiment”, the “Differences in overall stereotypy between dose groups” value ([1]; 0.1-10 mg/kg s.c., Kruskall Wallis) was “did not reach statistical significance” and the “Stereotypy (Peak)” value [1] was 5.0. The “Stereotypy (Total)” value [1] was 115, the Effect on stereotypy [1] was “increased stereotypy in a log dose-related manner” and the “Locomotor (Peak)” value [2] was 37. For the same compound, the “Locomotor (Total)” value [2] was 560, the “Ratio (Peak)” value [2] was 7.4 and the “Ratio (Total)” value [2] was 4.9. For the same compound, the “Effect on locomotor activity” value [2] was “increased locomotor activity only at the highest dose of 10 mg/kg”.
With `C[C@H](Cc1ccccc1)NC(C#N)c1ccccc1` (stereo partly drawn) [(R,R′), (R,S′)-amphetaminil, alpha-[(1R-methyl-2-phenylethyl)amino]-benzeneacetonitrile] the “Stereotypy compared with racemic amphetaminil” value ([1]; FIGS. 7 and 8) was “less stereotypy than the racemic form of amphetaminil”, the “Stereotypy (Peak)” value [1] was 3.3 and the “Stereotypy (Total)” value [1] was 57. For the same compound, the Effect on stereotypy [1] was “tended to increase stereotypy at 10 mg/kg”, the “Locomotor/stereotypy ratio compared with racemic amphetaminil” value ([2]; at both the time of peak effect and total effect) was “higher ratio” and the “Locomotor (Peak)” value [2] was 62. For the same compound, the “Locomotor (Total)” value [2] was 625, the “Ratio (Peak)” value [2] was 18.8 and the “Ratio (Total)” value [2] was 11. For the same compound, the “Effect on locomotor activity” value [2] was “increased locomotor activity only at the highest dose of 10 mg/kg”.
